Experiments:
[1] = system: lipid peroxide formation in rat brain tissue homogenate; test: Activity to inhibit lipid peroxide formation in rat brain tissue homogenate (TBA method); format: biochemical, rat (male SD); details: 10^-5 M; n = 3, mean; 5% brain homogenate, pH 7.4, 37° C., 1 hour
Method: Activity to inhibit lipid peroxide formation in rat brain tissue homogenate: Male SD rats (12-week-old) were subjected to exsanguination under anesthesia with pentobarbital, then the brain was excised. The brain tissue was homogenized in a phosphate buffer (pH 7.4) to prepare a 5% homogenate. After incubation of the homogenate at 37° C. for 1 hour, the amount of lipid peroxides formed therein was determined by the thiobarbituric acid (TBA) method in accordance with the report of Ohkawa et al. on Analytical Biochemistry, 95, 351, (1979). The test drug was added to the 5% homogenate before incubation so as to make the final concentration to be 10^-5 M. The activity to inhibit the formation of lipid peroxide was judged by comparing the amount of the lipid peroxide in the treated group with that of the reference group to which was added the solvent (DMSO), and shown by % inhibition.

[2] = system: mice; test: Acute toxicity in mice; format: in vivo; details: for sedation and ptosis: six mice per group
Method: Male Crj-ICR mice (4-week-old, 21 to 26 g) were used. The animals, divided into groups, each consisting of six mice, were administered orally with compounds (4-b, 4-1) at the dosages of 300 and 1000 mg/kg, respectively. Then, each group was housed in a cage and observed for 24 hours.
The test drugs were suspended in gum arabic and administered at a volume of 0.1 ml/10 g.

[3] = system: rat hearts; test: Activity to inhibit occurrence of ventricular arrhythmia during coronary artery occlusion-reperfusion in rat hearts; format: in vivo, rat (male SD); design: Ventricular fibrillation, incidence / Ventricular tachycardia, incidence: unit not given here; details: for Ventricular fibrillation, incidence / Ventricular tachycardia, incidence: (10 min.) after reperfusion; for Ventricular fibrillation, incidence / Ventricular tachycardia, incidence / Ventricular fibrillation, duration / Ventricular tachycardia, duration: average ±SEM; for Mortality: killed animals/test animals; for mortality due to VF (in words) / occurrence of arrhythmia (in words) / period of time during which arrhythmia lasted (in words) / frequency of occasional PVCs (in words): 10 mg/kg; for frequency of occasional PVCs (in words): vs vehicle around 10 times/minute; for effect on arrhythmia (in words): oral
Text: Activity to inhibit occurrence of ventricular arrhythmia during coronary artery occlusion-reperfusion in rat hearts
Male SD rats (9- to 13-week old, 250 to 370 g) were used. The animals were subjected to thoractonomy under artificial respiration while anesthesia was maintained by administering pentobarbital. […] By recording standard limb lead II electrocardiograms, occurrence of ventricular arrhythmia was examined. […]
Incidences of ventricular fibrillation and ventricular tachycardia are shown by the percentage of the number of animals presenting the symptoms relative to the number of animals subjected to the test, and the duration of the symptoms was shown by average ±SEM in seconds. Extrasystole is shown by the number of systole/min., and the mortality is shown by the percentage of the number of killed animals relative to the number of test animals.

Molecule: CCCCCCCCCCCCCCOc1ccc(C2=C(O)CN(C)C2=O)cc1 [Compound 4-a]
- Inhibition rate of lipid peroxide formation [1]: 97.9%

Molecule: CCCCCCCCCCCCOc1ccc(C2=C(O)CN(C)C2=O)cc1 [Compound 4-b, N-methyl-3-(4-dodecyloxyphenyl)-4-hydroxy-3-pyrrolin-2-one]
- Inhibition rate of lipid peroxide formation [1]: 97.9%
- time to recovery from sedation and ptosis ([2]; oral, 300 and 1000 mg/kg): ≤ 3 h
- deaths ([2]; oral, 300 and 1000 mg/kg, 24-hour observation): no test animals of either group were killed
- sedation and ptosis ([2]; oral, 300 and 1000 mg/kg): observed on half number of the test animals

Molecule: CCCCCCCCCCCCOc1ccc(C2=C(O)CN(CC(C)C)C2=O)cc1 [Compound 4-c]
- Inhibition rate of lipid peroxide formation [1]: 100%

Molecule: CCCCCCCCCCCCOc1ccc(C2=C(O)CN(CCCCCCCCCCCC)C2=O)cc1 [Compound 4-d]
- Inhibition rate of lipid peroxide formation [1]: 100%

Molecule: CCCCCCCCCCCCOc1ccc(C2=C(O)CN(c3ccccc3)C2=O)cc1 [Compound 4-e]
- Inhibition rate of lipid peroxide formation [1]: 100%

Molecule: CCCCCCCCCCCCOc1ccc(C2=C(O)CN(Cc3ccccc3)C2=O)cc1 [Compound 4-f]
- Inhibition rate of lipid peroxide formation [1]: 75.5%

Molecule: CCCCCCCCCCCCOc1ccc(C2=C(O)CN(CCc3ccccc3)C2=O)cc1 [Compound 4-g]
- Inhibition rate of lipid peroxide formation [1]: 100%

Molecule: CCCCCCCCCCCCOc1ccc(C2=C(O)CN(CCCc3ccccc3)C2=O)cc1 [Compound 4-h]
- Inhibition rate of lipid peroxide formation [1]: 100%

Molecule: CCCCCCCCCCCCOc1ccc(C2=C(O)CN(Cc3ccsc3)C2=O)cc1 [Compound 4-i]
- Inhibition rate of lipid peroxide formation [1]: 89.4%

Molecule: CCCCCCCCCCCCOc1ccc(C2=C(O)CN(Cc3ccc(C(=O)OC)cc3)C2=O)cc1 [Compound 4-j]
- Inhibition rate of lipid peroxide formation [1]: 52.8%

Molecule: CCCCCCCCCCCCOc1ccc(C2=C(O)CN(Cc3ccc(C(=O)O)cc3)C2=O)cc1 [Compound 4-k]
- Inhibition rate of lipid peroxide formation [1]: 63.8%

Molecule: CCCCCCCCCCCCOc1ccc(C2=C(O)CN(Cc3cc(OC)c(OC)c(OC)c3)C2=O)cc1 [Compound 4-l]
- Extrasystole ([3]; 3 mg/Kg): 5.4 ± 1.1 times/min.
- Ventricular fibrillation, incidence ([3]; 3 mg/Kg): 0.8 ± 0.4
- Ventricular tachycardia, incidence ([3]; 3 mg/Kg): 3.5 ± 0.8
- Ventricular fibrillation, duration ([3]; 3 mg/Kg): 1.7 ± 1.2 s
- Ventricular tachycardia, duration ([3]; 3 mg/Kg): 7.1 ± 2.2 s
- Mortality ([3]; 3 mg/Kg): 0/8
- mortality due to VF (in words) [3]: low
- occurrence of arrhythmia (in words) [3]: suppressed remarkably
- period of time during which arrhythmia lasted (in words) [3]: shortened
- frequency of occasional PVCs (in words) [3]: significantly less
- Inhibition rate of lipid peroxide formation [1]: 96.7%
- deaths ([2]; mouse, in vivo): no test animals of either group were killed
- time to recovery from sedation and ptosis ([2]; oral, 300 and 1000 mg/kg): ≤ 3 h
- sedation and ptosis ([2]; oral, 300 and 1000 mg/kg): observed on half number of the test animals

Molecule: CCCCCCCCCCCCOc1ccc(C2=C(O)CN(Cc3c(C)c(OC)c(C)c(C)c3OC)C2=O)cc1 [Compound 4-m]
- Inhibition rate of lipid peroxide formation [1]: 100%

Molecule: CCCCCCCCCCCCOc1ccc(C2=C(O)CN(Cc3ccc(Cl)cc3)C2=O)cc1 [Compound 4-n]
- Inhibition rate of lipid peroxide formation [1]: 100%

Molecule: CCCCCCCCCCCCCCCCCCOC1=C(O)CN(Cc2cc(OC)c(OC)c(OC)c2)C1=O [Compound 4-p]
- Extrasystole ([3]; 10 mg/Kg): 3.3 ± 0.7 times/min.
- Ventricular fibrillation, incidence ([3]; 10 mg/Kg): 0.9 ± 0.3
- Ventricular tachycardia, incidence ([3]; 10 mg/Kg): 4.1 ± 1.2
- Ventricular fibrillation, duration ([3]; 10 mg/Kg): 2.1 ± 1.3 s
- Ventricular tachycardia, duration ([3]; 10 mg/Kg): 7.3 ± 2.4 s
- Mortality ([3]; 10 mg/Kg): 0/9
- mortality due to VF (in words) [3]: low
- occurrence of arrhythmia (in words) [3]: suppressed remarkably
- period of time during which arrhythmia lasted (in words) [3]: shortened
- frequency of occasional PVCs (in words) [3]: significantly less

Molecule: O=C1O[C@H]([C@@H](O)CO)C(O)=C1O [Vitamin C, reference compound]
- Extrasystole ([3]; 50 mg/kg): 11.0 ± 0.8 times/min.
- Ventricular fibrillation, incidence ([3]; 50 mg/kg): 5.4 ± 0.8
- Ventricular tachycardia, incidence ([3]; 50 mg/kg): 9.5 ± 1.8
- Ventricular fibrillation, duration ([3]; 50 mg/kg): 74.1 ± 36.0 s
- Ventricular tachycardia, duration ([3]; 50 mg/kg): 12.0 ± 2.9 s
- Mortality ([3]; 50 mg/kg): 1/12
- effect on arrhythmia (in words) ([3]; 50 mg/kg): no significant effect
- Inhibition rate of lipid peroxide formation [1]: -71.6%

Molecule: Vitamin E [reference compound]
- Extrasystole ([3]; 50 mg/kg): 7.0 ± 4.1 times/min.
- Ventricular fibrillation, incidence ([3]; 50 mg/kg): 2.0 ± 0.7
- Ventricular tachycardia, incidence ([3]; 50 mg/kg): 3.7 ± 1.5
- Ventricular fibrillation, duration ([3]; 50 mg/kg): 43.4 ± 36.0 s
- Ventricular tachycardia, duration ([3]; 50 mg/kg): 22.3 ± 9.7 s
- Mortality ([3]; 50 mg/kg): 1/10
- effect on arrhythmia (in words) ([3]; 50 mg/kg): no significant effect
- Inhibition rate of lipid peroxide formation [1]: 44.9%

— patent publication US4925868A, “4-Hydroxy-3-pyrrolin-2-ones and treatment of circulatory disorders therewith” (Takeda Chemical Industries, Ltd., priority 1986, dated 1990)
